Results from patent US7598028B2, “Compositions and methods for detecting and treating prostate disorders” (The Regents of the University of Michigan, priority 2006, dated 2009).

How the values were obtained:
[1] = test system: N15C6 prostate epithelial cells; experiment: Proliferation assay (cell counts), N15C6; type: cell-based, human
Experimental: Proliferation assays. Cellular proliferation was assessed after plating cells at 50 000 cell/well in triplicate in six-well plates and counting cells after 24 and 96 h of incubation in complete media, serum-free media or serum-free prostate stromal fibroblast conditioned media, as described previously (Macoska J A, et al., (2004) Cancer Genet. Cytogenet. 154, 36-43; incorporated herein by reference in its entirety). Averages and standard deviations of cell number were calculated for each time point under each media condition. To assess the effects of exogenous CXCL12 on cellular proliferation, recombinant human SDF1 alpha/CXCL12 (R & D Systems, 350-NS) was added at the desired concentration in 1 mL SF HIE (or 1 mL SF HIE alone for control) to each well. The cells were counted at 24 and 96 h growth and re-fed at 48 and 72 h growth. Cell counts were normalized to 50 000 cells at 24 h to account for any plating discrepancies.
Proliferation Assays. Cellular proliferation was assessed after plating cells at 50,000 cell/well in triplicate in six well plates and counting cells after 24 and 96 hours of incubation as described previously (see, e.g., Macoska J A, et al., 2004 Cancer Genet. Cytogenet. 154, 36-43; incorporated herein by reference in its entirety). To assess the effects of exogenous CXCL12 on cellular proliferation, recombinant human SDF1 alpha/CXCL12 (R&D Systems, 350-NS) was added at the desired concentration in 1 ml SF HIE (or 1 ml SF HIE alone for control) to each well. The cells were re-fed at 48 and 72 hours growth and counted at 24 and 96 hours growth. Cell counts were normalized to 50,000 cells at 24 hours to account for any plating discrepancies. Averages and standard deviations of cell number were calculated for each time point under each media condition. Experiments utilizing U0126 were performed as above, except that cells were treated after plating for 2 hours with either DMSO (vehicle) or 5 uM U0126 before addition of CXCL12. Cells were maintained in media containing DMSO or U0126 for the entirety of the experiment. For the antibody blockade experiments, cells were plated at 10,000 cells per well in triplicate in 24 well dishes and pre-incubated with mouse IgG2aκ (BD Pharmingen 555571) or mouse anti-CXCR4 (BD Pharmingen 555971) at 1 ug/ml for 1 hour prior to CXCL12 addition. Cells were maintained in media containing appropriate antibodies for the entirety of the experiment, and cells were counted at 24 and 96 hours as above.
Proliferation Assays. Cellular proliferation was assessed after plating cells at 50,000 cell/well in triplicate in six well plates and counting cells after 24 and 96 hours of incubation as described previously (see, e.g., Begley L, et al., Genes Chromosomes Cancer. 2006 February; 45(2): 136-46; herein incorporated by reference in its entirety). To assess the effects of exogenous CXCL5 on cellular proliferation, recombinant human CXCL5 (R&D Systems, 254-X) was added at the desired concentration in 2 ml SF media (or 2 ml SF media alone for control) to each well. The cells were re-fed at 24 hours growth and counted at 24 and 96 hours growth. Cell counts were normalized to 50,000 cells at 24 hours to account for any plating discrepancies. Averages and standard deviations of cell number were calculated for each time point under each media condition. For the antibody blockade experiments, 10,000 cells per well were plated in triplicate in 24 well dishes and preincubated with mouse anti-human CXCR2 (Biosource AHR1532X) or mouse antihuman CXCR4 (BD Pharmingen 555971) at 1 ug/ml for 1 hour prior to CXCL5 addition. Cells were maintained in media containing appropriate antibodies for the entirety of the experiment and were counted at 24 and 96 hours as above.

ERK ½ = experiment: Western blot, ERK phosphorylation in N15C6 cells; type: cell-based, human
Experimental: Western blot analysis Cells were lysed, proteins resolved by electrophoresis and electroblotting was carried out as described previously (Chaib H, et al., (2001) Cancer Res. 61, 2390-2394; incorporated herein by reference in its entirety). Proteins were detected using antibodies against phospho-ERK½ (Cell Signaling no. 9101), total ERK½ (Cell Signaling, no. 9102), CXCR4 (Abcam no. ab2074), CXCR7 (Abcam #Ab12870, Abcam #Ab12871, Abcam #38089), phospho-p65 (Rockland no. 100-401-264), total p65 (Rockland no. 100-4165), or beta-actin (Santa Cruz no. sc-1615), in conjunction with an ECL detection system.
Western Blot Analysis. Cells were lysed, proteins resolved by electrophoresis, and electroblotting was carried out as described previously (see, e.g.; Chaib H, et al., 2001 Cancer Res. 61, 2390-2394; incorporated herein by reference in its entirety). Proteins were detected using antibodies against phospho-ERK½ (Cell Signaling #9101), total ERK½ (Cell Signaling #9102), CXCR4 (Abcam #ab2074), Elk-1 (Cell Signaling #9182), Phospho Elk-1 (Cell Signaling #9181), or beta-actin (Santa Cruz #sc-1615), in conjunction with an ECL detection system.
Western Blot and Protein Analysis. Cells were lysed, proteins resolved by electrophoresis, and electroblotting was carried out as described previously except that 20 ug protein was electrophoresed per gel lane for N15C6 cells and 100 ug protein for LNCaP cells (see, e.g., Begley L, et al., Aging Cell. 2005 December; 4(6):291-8; Begley L A, et al., J Biol. Chem. 2007 Sep. 14; 282(37):26767-74; each herein incorporated by reference in their entireties). Proteins were detected using antibodies against phospho-ERK½ (Cell Signaling #9101), total ERK½ (Cell Signaling, #9102), phospho-p65, (Rockland #100-401-264), total p65 (Rockland #100-4165), STAT3 (9139), phospho-STAT3 (9138), beta-actin (Santa Cruz #sc-1615), or tubulin (Upstate, #DM1A) in conjunction with an ECL detection system. Secondary antibodies included goat anti-rabbit (Cell Signaling, #7074) and goat anti-mouse (Santa Cruz, #SC-2005), and both were used at a 1:5000 concentration. Immunoblots shown are representative of triplicate experiments. Densitometric quantitation of immunoblot films was accomplished by scanning the original films and converting the .tiff files to grayscale. Images were inverted, and mean band intensities were measured using ImageJ (www, followed by, .nih.gov). The mean intensity of adjacent background was also measured for each band and subtracted from band intensity.

## N#CC(=C(/N)Sc1ccccc1N)/C(C#N)=C(\N)Sc1ccccc1N [U0126]
[1]; 1.0 uM U0126 with 1 pM, 10 pM or 100 pM CXCL12, compared to DMSO
  effect on proliferative response to CXCL12: nearly ablated
[1]; 5.0 uM U0126 in 0.05% DMSO
  effect on proliferative response to CXCL12: nearly ablated
[1]; stated as anticipated
  effect of U0126 on the effect of CXCL5 (anticipated): will inhibit
[1]; treatment with U0126
  cellular proliferation in the absence of CXCL12: diminished
ERK ½; 0.1 uM or 1.0 uM U0126, 1 pM CXCL12
  effect on CXCL12-stimulated ERK ½ phosphorylation: diminished
ERK ½; 1 uM U0126 pre-treatment, 10 pM or 1000 pM CXCL12
  effect on CXCL12-stimulated ERK ½ phosphorylation: reduces
ERK ½; 1.0 uM or 5.0 uM U0126, 1 pM, 10 pM or 1000 pM CXCL12
  effect on CXCL12-stimulated ERK phosphorylation: greatly diminishes
ERK ½; 5 uM U0126 pre-treatment, 10 pM or 1000 pM CXCL12
  effect on CXCL12-stimulated ERK ½ phosphorylation: ablates

## CXCL5: recombinant human CXCL5 (R&D Systems, 254-X), CXC-type chemokine
[1]
  CXCL5 concentrations that inhibited proliferation: > 100 µM
  CXCL5 concentrations that stimulated proliferation: 1 to 10 pM
[1]; 0.001-1 nM CXCL5, p<0.05
  proliferation versus SF media alone: significantly higher
[1]; FIG. 8
  proliferation in response to CXCL5 compared with CXCL12: equivalently
[1]; add back of exogenous chemokine, 96 hours
  cell proliferation compared to serum-free (SF HIE) media alone: stimulate
ERK ½; 10 pM, 100 pM or 1 nM CXCL5
  ERK ½ phosphorylation: rapidly and transiently phosphorylated
